Reference: ChEMBL document CHEMBL1649078, “Novel antiviral C5-substituted pyrimidine acyclic nucleoside phosphonates selected as human thymidylate kinase substrates” (J Med Chem, 2011)
Activity calls are given as the source filed them.

What was measured:
[1] = species on record: Homo sapiens; assay: Activity at human recombinant UCK by Michaelis-Menten equation analysis
[2] = species on record: Homo sapiens; assay: Displacement of MABA-CDP from human recombinant UCK by fluorescence competition assay
[3] = test system: Human alphaherpesvirus 3; assay: Antiviral activity against VZV OKA expressing thymidine kinase infected in human HEL cells assessed as reduction of virus-induced cytopathogenicity after 5 days; format: functional, organism-based; details: Human alphaherpesvirus 3, OKA, 120 h
[4] = test system: Human betaherpesvirus 5; assay: Antiviral activity against HCMV AD169/Davis infected in human HEL cells assessed as reduction of virus-induced cytopathogenicity after 7 days; format: functional, organism-based; details: Human betaherpesvirus 5, AD169/Davis, 168 h
[5] = Cytotoxicity against human HEL cells after 3 days; format: cell-based
[6] = test system: Human alphaherpesvirus 2; assay: Antiviral activity against HSV2 G infected in human HEL cells assessed as reduction of virus-induced cytopathogenicity after 7 days; format: functional, organism-based; details: Human alphaherpesvirus 2, strain G, 168 h
[7] = test system: Human alphaherpesvirus 3; assay: Antiviral activity against thymidine kinase-deficient VZV 07/1 infected in human HEL cells assessed as reduction of virus-induced cytopathogenicity after 5 days; format: functional, organism-based; details: Human alphaherpesvirus 3, 07/1, HEL, 120 h
[8] = species on record: Homo sapiens; assay: Binding affinity to human recombinant UCK by circular dichroism analysis
[9] = test system: Human alphaherpesvirus 1; assay: Antiviral activity against acyclovir-resistant thymidine kinase deficient HSV1 KOS infected in human HEL cells assessed as reduction of virus-induced cytopathogenicity after 7 days; format: functional, organism-based; details: Human alphaherpesvirus 1, KOS, 168 h
[10] = test system: Human alphaherpesvirus 1; assay: Antiviral activity against HSV1 KOS infected in human HEL cells assessed as reduction of virus-induced cytopathogenicity after 7 days; format: functional, organism-based; details: Human alphaherpesvirus 1, KOS, 168 h
[11] = species on record: Homo sapiens; assay: Displacement of Mant-ATP from human recombinant UCK by fluorescence competition assay
[12] = Inhibition of human recombinant UCK by Double reciprocal plot analysis

SMILES | Activity [1] | Activity [2] | further results
O=c1[nH]c(=O)n(C/C=C/CCP(=O)(O)O)cc1F | inactive | inactive | 
O=c1[nH]c(=O)n([C@H]2C[C@H](O)[C@@H](CO)O2)cc1/C=C/Br [BRIVUDINE] |  |  | EC50 [3]: 0.012 µM; EC50 [4]: > 250 µM; CC50 at 72 h [5]: > 250 µM; MCC at 72 h [5]: > 250 µM; EC50 [6]: 30 µM; EC50 [7]: > 100 µM
CCOP(=O)(/C=C/Cn1cc(F)c(=O)[nH]c1=O)OCC | inactive | inactive | 
COP(=O)(C/C=C/Cn1cc(C)c(=O)[nH]c1=O)OC | inactive | inactive | 
Nc1ccn([C@H]2C[C@H](O)[C@@H](COP(=O)(O)O)O2)c(=O)n1 |  |  | Activity [8]: inactive
COP(=O)(C/C=C/Cn1cc(Cl)c(=O)[nH]c1=O)OC | inactive | inactive | 
CCOP(=O)(CC/C=C/Cn1cc(F)c(=O)n(C(=O)c2ccccc2)c1=O)OCC | inactive | inactive | 
O=c1[nH]c(=O)n(C/C=C/P(=O)(O)O)cc1F | inactive | inactive | 
CCOP(=O)(CC/C=C/Cn1ccc(=O)n(C(=O)c2ccccc2)c1=O)OCC | inactive | inactive | 
COP(=O)(C/C=C/Cn1cc(F)c(=O)[nH]c1=O)OC | inactive | inactive | 
O=c1[nH]c(=O)n(C/C=C/CCP(=O)(O)O)cc1Cl | inactive | inactive | 
COP(=O)(C/C=C/Cn1cc(Br)c(=O)[nH]c1=O)OC | inactive | inactive | 
CCOP(=O)(CC/C=C/Cn1cc(Br)c(=O)[nH]c1=O)OCC | inactive | inactive | 
O=c1ccn(C/C=C/CCP(=O)(O)O)c(=O)[nH]1 | inactive | inactive | 
O=c1[nH]c(=O)n(C/C=C/CP(=O)(O)O)cc1Br | inactive | inactive | 
CCOP(=O)(/C=C/Cn1cc(Cl)c(=O)[nH]c1=O)OCC | inactive | inactive | 
Cc1cn(C/C=C/CCP(=O)(O)O)c(=O)[nH]c1=O | inactive | inactive | 
CCOP(=O)(/C=C/Cn1cc(Br)c(=O)[nH]c1=O)OCC | inactive | inactive | 
COP(=O)(C/C=C/Cn1cc(Cl)c(=O)n(C(=O)c2ccccc2)c1=O)OC | inactive | inactive | 
O=c1[nH]c(=O)n(C/C=C/P(=O)(O)O)cc1Br | inactive | inactive | 

SMILES | Activity [1] | Activity [2] | further results
CC(C)(C)C(=O)OCOP(=O)(C/C=C/Cn1cc(Br)c(=O)[nH]c1=O)OCOC(=O)C(C)(C)C | inactive | inactive | EC50 [3]: 20 µM; EC50 [4]: > 40 µM; CC50 at 72 h [5]: 34 µM; MCC at 72 h [5]: 200 µM; EC50 [9]: 19 µM; EC50 [6]: 16 µM; EC50 [10]: 20 µM; EC50 [7]: 15 µM
COP(=O)(C/C=C\Cn1cc(F)c(=O)[nH]c1=O)OC | inactive | inactive | 
COP(=O)(C/C=C/Cn1cc(Br)c(=O)n(C(=O)c2ccccc2)c1=O)OC | inactive | inactive | 
Cc1cn(C/C=C\CP(=O)(OCOC(=O)C(C)(C)C)OCOC(=O)C(C)(C)C)c(=O)[nH]c1=O | inactive | inactive | EC50 [3]: > 40 µM; EC50 [4]: > 200 µM; CC50 at 72 h [5]: 35 µM; MCC at 72 h [5]: ≥ 200 µM; EC50 [9]: > 40 µM; EC50 [6]: > 40 µM; EC50 [10]: > 40 µM; EC50 [7]: > 40 µM
COP(=O)(C/C=C\Cn1ccc(=O)[nH]c1=O)OC | inactive | inactive | 
CCOP(=O)(CC/C=C/Cn1cc(Br)c(=O)n(C(=O)c2ccccc2)c1=O)OCC | inactive | inactive | 
CCOP(=O)(CC/C=C/Cn1cc(C)c(=O)n(C(=O)c2ccccc2)c1=O)OCC | inactive | inactive | 
COP(=O)(C/C=C\Cn1cc(C)c(=O)n(C(=O)c2ccccc2)c1=O)OC | inactive | inactive | 
O=c1[nH]c(=O)n(C/C=C/CCP(=O)(O)O)cc1Br | inactive | inactive | 
Nc1ncnc2c1ncn2CCOCP(=O)(O)O |  |  | Activity [11]: inactive
COP(=O)(C/C=C\Cn1cc(Cl)c(=O)n(C(=O)c2ccccc2)c1=O)OC | inactive | inactive | 
COP(=O)(C/C=C/Cn1cc(C)c(=O)n(C(=O)c2ccccc2)c1=O)OC | inactive | inactive | 
COP(=O)(C/C=C\Cn1cc(C)c(=O)[nH]c1=O)OC | inactive | inactive | 
O=c1[nH]c(=O)n(C/C=C/CP(=O)(O)O)cc1F | inactive | inactive | 
COP(=O)(C/C=C/Cn1cc(F)c(=O)n(C(=O)c2ccccc2)c1=O)OC | inactive | inactive | 
COP(=O)(C/C=C\Cn1cc(Br)c(=O)[nH]c1=O)OC | inactive | inactive | 
O=c1[nH]c(=O)n(C/C=C/P(=O)(O)O)cc1Cl | inactive | inactive | 
Cc1cn(C/C=C/P(=O)(O)O)c(=O)[nH]c1=O | inactive | inactive | 
CCOP(=O)(CC/C=C/Cn1cc(Cl)c(=O)[nH]c1=O)OCC | inactive | inactive | 
O=c1ccn(C/C=C/P(=O)(O)O)c(=O)[nH]1 | inactive | inactive | 

SMILES | Activity [1] | Activity [2] | further results
Cc1cn(C/C=C/CP(=O)(OCOC(=O)C(C)(C)C)OCOC(=O)C(C)(C)C)c(=O)[nH]c1=O | inactive | inactive | EC50 [3]: 0.41 µM; EC50 [4]: > 40 µM; CC50 at 72 h [5]: 35 µM; MCC at 72 h [5]: ≥ 200 µM; EC50 [9]: 9.2 µM; EC50 [6]: 6.1 µM; EC50 [10]: 3.1 µM; EC50 [7]: 0.19 µM
COP(=O)(C/C=C\Cn1cc(F)c(=O)n(C(=O)c2ccccc2)c1=O)OC | inactive | inactive | 
Nc1nc2c(ncn2COC(CO)CO)c(=O)[nH]1 [GANCICLOVIR] |  |  | EC50 [4]: 5.2 µM; CC50 at 72 h [5]: 164 µM; MCC at 72 h [5]: > 100 µM; EC50 [9]: 3 µM; EC50 [6]: 0.05 µM; EC50 [10]: 0.08 µM
CCOP(=O)(/C=C/Cn1cc(C)c(=O)[nH]c1=O)OCC | inactive | inactive | 
CCOP(=O)(CC/C=C/Cn1cc(C)c(=O)[nH]c1=O)OCC | inactive | inactive | 
COP(=O)(C/C=C\Cn1cc(Br)c(=O)n(C(=O)c2ccccc2)c1=O)OC | inactive | inactive | 
CCOP(=O)(/C=C/Cn1ccc(=O)[nH]c1=O)OCC | inactive | inactive | 
CCOP(=O)(CC/C=C/Cn1cc(Cl)c(=O)n(C(=O)c2ccccc2)c1=O)OCC | inactive | inactive | 
COP(=O)(C/C=C/Cn1ccc(=O)n(C(=O)c2ccccc2)c1=O)OC | inactive | inactive | 
Cc1cn(C/C=C/CP(=O)(O)O)c(=O)[nH]c1=O | inactive | inactive | Ki [12]: 1200 µM
O=c1ccn(C/C=C/CP(=O)(O)O)c(=O)[nH]1 | inactive | inactive | 
COP(=O)(C/C=C/Cn1ccc(=O)[nH]c1=O)OC | inactive | inactive | 
COP(=O)(C/C=C\Cn1cc(Cl)c(=O)[nH]c1=O)OC | inactive | inactive | 
CCOP(=O)(CC/C=C/Cn1cc(F)c(=O)[nH]c1=O)OCC | inactive | inactive | 
CCOP(=O)(CC/C=C/Cn1ccc(=O)[nH]c1=O)OCC | inactive | inactive | 
COP(=O)(C/C=C\Cn1ccc(=O)n(C(=O)c2ccccc2)c1=O)OC | inactive | inactive | 
Nc1ccn(C[C@@H](CO)OCP(=O)(O)O)c(=O)n1 [CIDOFOVIR] |  |  | EC50 [3]: 0.044 µM; EC50 [4]: 1.2 µM; CC50 at 72 h [5]: 280 µM; MCC at 72 h [5]: > 250 µM; EC50 [9]: 2.5 µM; EC50 [6]: 2 µM; EC50 [10]: 3.5 µM; Activity [11]: inactive; EC50 [7]: 0.07 µM; Activity [8]: inactive
CC(C)(C)C(=O)OCOP(=O)(C/C=C\Cn1cc(Br)c(=O)[nH]c1=O)OCOC(=O)C(C)(C)C | inactive | inactive | EC50 [3]: 97 µM; EC50 [4]: > 200 µM; CC50 at 72 h [5]: 70 µM; MCC at 72 h [5]: > 200 µM; EC50 [9]: > 200 µM; EC50 [6]: 45 µM; EC50 [10]: > 200 µM; EC50 [7]: 110 µM
C[C@H](Cn1cnc2c(N)ncnc21)OCP(=O)(O)O |  |  | Activity [11]: inactive
